Laboratory results reported in paper PMC9658586, “1,4-Naphthoquinone Motif in the Synthesis of New Thiopyrano[2,3-d]thiazoles as Potential Biologically Active Compounds” (Molecules, 2022).
Where two headings read alike, the source gives them in different places.

What was measured:
[1] = tested on: KBC-1 (ABCB1-overexpressing subline of KB3-1); test: MTT cell viability assay, KBC-1; assay type: cell-based; details: Homo sapiens, 72 h
Description: (§1) The MTT cell viability assay was performed 72 h after cells treatment with various concentrations of studied compounds and doxorubicin, a reference drug. […] It is known that ABCB1 (P-glycoprotein), MRP1/ABCC1 (multidrug resistance protein 1), and BCRP/BCG2 (breast cancer resistance protein) have been reported to be key players in resistance to chemotherapy. […] The p53 has diverse mutations in almost all human tumors, stimulating their hyper-proliferation, invasion/metastasis, and thus, influencing the potency of various chemotherapeutics (i.e., platins and anti-metabolites).
(§2) Human colon carcinoma HCT116 cells, human breast adenocarcinoma cells of MCF-7 line, human T-leukemia Jurkat cells, human chronic myelogenous leukemia K562 cells, and human keratinocytes of HaCaT line were from the Cell Collection of R.E. Kavetsky Institute of Experimental Pathology, Oncology and Radiobiology (Kyiv, Ukraine). Murine macrophages of J774.2 line were a generous gift from Professor Sir John Vane (William Harvey Research Institute, London, UK) via Professor Janusz Marcinkiewicz (Jagiellonian University Medical College, Krakow, Poland). Human colon carcinoma HCT116 p53-/- cells with knockdown of P53 gene, as well as human epidermoid cervix carcinoma KB3-1 cells and its ABCB1-overexpressing subline KBC-1, were kindly provided by Professor W. Berger (Institute of Cancer Research, Medical University of Vienna, Austria). […] Human leukemia monocytic THP-1 cells were kindly provided by Professor M. Herrmann (Department of Internal Medicine, Institute for Clinical Immunology and Rheumatology, University of Erlangen-Nuremberg, Germany). […]
(§3) MTT assay was used to examine the viability of tumor and pseudo-normal cells after their treatment with studied thiopyrano[2,3-d]thiazole derivatives and doxorubicin (Actavis S.R.L., Bucharest, Romania). […] An absorbance Reader BioTek ELx800 (BioTek Instruments, Inc., Winooski, VT, USA) was used to measure the reaction product.

[2] = tested on: human T-leukemia Jurkat cells; test: MTT cell viability assay, Jurkat; assay type: cell-based; details: 72 h
Description: as §1
(§4) Human colon carcinoma HCT116 cells, human breast adenocarcinoma cells of MCF-7 line, human T-leukemia Jurkat cells, human chronic myelogenous leukemia K562 cells, and human keratinocytes of HaCaT line were from the Cell Collection of R.E. Kavetsky Institute of Experimental Pathology, Oncology and Radiobiology (Kyiv, Ukraine). […]
as §3

[3] = tested on: Human leukemia monocytic THP-1 cells; test: MTT cell viability assay, THP-1; assay type: cell-based; details: 72 h
Description: as §1, §4, §3

[4] = tested on: human keratinocytes of HaCaT line; test: MTT cell viability assay, HaCaT; assay type: cell-based; details: 72 h, pseudo-normal cells
Description: as §1, §2, §3

[5] = tested on: isolated normal human peripheral blood lymphocytes; test: MTT cell viability assay, isolated lymphocytes; assay type: cell-based; details: 72 h, MTT, normal human peripheral blood lymphocytes, read-out: IC50, Isolated lymphocytes
Description: We continued the cytotoxicity study of synthesized derivatives 3.1–3.6 toward tumor and pseudo-normal cells in vitro. The MTT cell viability assay was performed 72 h after cells treatment with various concentrations of studied compounds and doxorubicin, a reference drug. […] The THP-1 cells, monocytes isolated from peripheral blood from an acute monocytic leukemia patient, were also sensitive to the 3.6 treatment. […] The 3.6 inhibited the viability of epidermoid carcinoma (KB3-1 and its ABCB1-overexpressing subline KBC-1) and colon carcinoma (HCT116wt and its p53 knockdown subline HCT116 p53-/-) cells. It is known that ABCB1 (P-glycoprotein), MRP1/ABCC1 (multidrug resistance protein 1), and BCRP/BCG2 (breast cancer resistance protein) have been reported to be key players in resistance to chemotherapy. […] Thus, the p53 status of colon carcinoma cells influenced the anti-tumor effects of the studied 3,5,10,11-tetrahydro-2H-benzo[6,7]thiochromeno[2,3-d][1, 3]thiazole-2,5,10-trione. The p53 has diverse mutations in almost all human tumors, stimulating their hyper-proliferation, invasion/metastasis, and thus, influencing the potency of various chemotherapeutics (i.e., platins and anti-metabolites). […] Based on our findings, one can assume a p53-dependent mode of action for 3.6 toward colon cancer cells.
MTT assay was used to examine the viability of tumor and pseudo-normal cells after their treatment with studied thiopyrano[2,3-d]thiazole derivatives and doxorubicin (Actavis S.R.L., Bucharest, Romania). Cells were seeded in 96-well plates at a density of 3–5 × 103. After 24 h, cells were treated with compound […], 1,4-NQ (0.1–100 µM), and doxorubicin (0.1–100 µM). After incubation for 72 h, MTT reagent (Sigma-Aldrich, St. Louis, MO, USA) was added to each well, according to the Sigma-Aldrich protocol. An absorbance Reader BioTek ELx800 (BioTek Instruments, Inc., Winooski, VT, USA) was used to measure the reaction product.
The study protocol with human lymphocytes isolated from healthy adult peripheral blood was approved by BioEthics Committee of the Institute of Cell Biology of National Academy of Sciences of Ukraine (protocol No 2 from 27 January 2019), and with written consent of donor.

Jurkat cells = test: DNA laddering (DNA extraction and gel electrophoresis); assay type: cell-based, human
Description: DNA extraction and gel electrophoresis were performed as described by Herrmann and others. Jurkat cells were collected by centrifugation; lysed in a lysis buffer (1% NP-40 in 20 mM EDTA, 50 mM Tris-HCl, pH 7.5; 10 µL per 10 6 cells, minimum 50 µL). After centrifugation for 5 min at 1600× g, the supernatant was collected and the extraction was repeated with the same amount of lysis buffer. Supernatants were brought to 1% SDS and treated for 2 h with RNase A (final concentration 5 µg/mL) at 56 °C. Then, proteinase K was added (final concentration 2.5, µg/mL) and incubated for 2 h at 37 °C. After adding 1/2 volume of 10 M ammonium acetate, the DNA was precipitated with 2.5 vol. Ethanol, dissolved in gel loading buffer, and separated by electrophoresis in 1% agarose gels containing Ethidium bromide (at 70 V).

salmon sperm DNA = test: DNA/methyl green colorimetric (replacement) assay; assay type: binding
Description: In addition, we used DNA/methyl green colorimetric assay to study the possible interaction of compound 3.6 in DNA. […] This assay was used to measure the displacement of methyl green from DNA by compounds with the ability to intercalate DNA [54].
The capacity of the tested compounds to intercalate into salmon sperm DNA was determined using the methyl green assay. Briefly, salmon sperm DNA (10 mg/mL) was incubated for 1 h at 37 °C with 15 µL of methyl green solution (1 mg/mL in H2O). The compounds were added at concentrations 1 and 10 µM/mL and incubated at 37 °C in the dark for 2 h. Reduction of the absorbance of methyl green at 642 nm induced by the test compounds was measured with a multiplate reader, Plate Reader BioTek Lx80 ( BioTek Instruments, Inc., Winooski, VT, USA). Doxorubicin, a well-known intercalating agent, was used as a positive control.

Row | Structure (SMILES) | IC50 [1] | IC50 [2] | IC50 [3] | IC50 ([4]; listed as Dox) | IC50 ([4]; Homo sapiens, HaCaT) | IC50 ([5]; Homo sapiens, Lymphocyte) | IC50 ([5]; listed as Dox) | DNA laddering (Jurkat cells; 0.5 µM) | methyl green replacement (salmon sperm DNA; 10 µM, compared with compound 3.6) | IC50 ([5]; Lymphocyte) | DNA laddering (Jurkat cells; 1 µM) | DNA laddering (Jurkat cells; 2.5 µM and 5 µM) | DNA laddering (Jurkat cells; 10 µM and 25 µM) | percentage of methyl green replacement (salmon sperm DNA; dependent on concentration (1 and 10 µM))
1 | COc1cccc2c1C(=O)c1c(O)c3c(c(O)c1C2=O)C[C@@](O)(C(=O)CO)C[C@@H]3O[C@H]1C[C@H](N)[C@H](O)[C@H](C)O1 [Doxorubicin, doxorubicin, reference compound] | 1970 nM | 670 nM | 14000 nM | 800 nM | 800 to 1000 nM | 800 to 1000 nM | 1000 nM | more necrotic changes in treated Jurkat cells than apoptotic ones | two times more effective |  |  |  |  | 
2 | O=C1C2=C(C(=O)c3ccccc31)C(CCc1ccccc1)c1sc(=O)[nH]c1S2 (stereo not drawn) [Compound 3.6, 11-Phenethyl-3,11-dihydro-2H-benzo[6,7]thiochromeno[2,3-d]thiazole-2,5,10-trione] | 12800 nM | 760 nM | 7940 nM |  | > 100000 nM |  |  |  |  | 58700 nM | slight laddering of DNA | necrotic degradation of DNA | extreme DNA fragmentation | 35.00 to 39.64%
